What follows are compounds tested against T1, BACE2 (Homo sapiens, UniProt Q9Y5Z0) (assay: Immunofluorescence Resonance Energy Transfer (FRET) assay for BACE2 inhibition). Conditions: pH 4.5; 5 μM TMEM27-based FRET peptide substrate.
T1 construct: BACE2 enzyme ectodomain (derived from plasmid “pET17b-T7-hu proBACE2”); T7 tag; made in house; a pET17b plasmid implies E. coli (own knowledge)
T1 sequence (Q9Y5Z0 63-473 limits assumed): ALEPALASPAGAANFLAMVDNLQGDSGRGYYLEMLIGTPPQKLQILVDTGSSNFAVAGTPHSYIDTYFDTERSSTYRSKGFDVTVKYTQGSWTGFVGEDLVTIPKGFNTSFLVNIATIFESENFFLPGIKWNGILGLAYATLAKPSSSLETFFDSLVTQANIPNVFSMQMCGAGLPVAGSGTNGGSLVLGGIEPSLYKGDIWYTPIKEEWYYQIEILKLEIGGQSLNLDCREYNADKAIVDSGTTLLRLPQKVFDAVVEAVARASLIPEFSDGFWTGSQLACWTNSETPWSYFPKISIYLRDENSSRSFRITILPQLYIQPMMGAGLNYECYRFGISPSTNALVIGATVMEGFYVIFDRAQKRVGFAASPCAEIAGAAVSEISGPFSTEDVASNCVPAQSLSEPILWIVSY
Assay type: biochemical
Experimental: BACE2 enzyme ectodomain (derived from plasmid “pET17b-T7-hu proBACE2”) was prepared as described in Ostermann et al., “Crystal Structure of Human BACE2 in Complex with a Hydroxyethylamine Transition-state Inhibitor”, Journal of Molecular Biology 2006, 355, 249-261. The pro-enzyme was stored at 4° C. at a concentration of 70 μg/ml.
The FRET assay was performed essentially as described in Grüninger-Leitch et al., Journal of Biological Chemistry (2002) 277(7) 4687-93 (“Substrate and inhibitor profile of BACE (beta-secretase) and comparison with other mammalian aspartic proteases”). In summary, a peptide is designed that is cleaved by the protease. The peptide is labelled with dabcyl at the N terminus and Lucifer Yellow at the C-terminus, such that for an intact peptide the Lucifer Yellow fluorescence is quenched by the dabcyl. When the peptide is cut by BACE2, the quenching is removed and a fluorescent signal is generated.
The assay was performed as described in Grueninger et al. 2002 at pH 4.5 using a substrate concentration of 5 μM. A FRET peptide based on the TMEM27 sequence was devised. dabcyl—[…]—LucY.
The assay readout is the initial rate of change of fluorescence intensity giving a relative measure of BACE2 activity. Small values correspond to high inhibition and larger values to low inhibition. […] IC50 values were determined using these assay values generated for a range of inhibitor concentrations and the curve fitting software XLfit (IDBS) using the Sigmoidal Dose-Response Model.

| IC50 [nM] | SMILES |
| --- | --- |
| 4930 | CC[C@@]1(c2cc(NC(=O)c3ncccc3-c3ccccc3)ccc2F)CCSC(N)=N1 [Example 8, 3-Phenyl-pyridine-2-carboxylic acid [3-((S)-2-amino-4-ethyl-5,6-dihydro-4H-[1,3]thiazin-4-yl)-4-fluoro-phenyl]-amide] |
| 41000 | CC[C@@]1(c2cc(NC(=O)c3cc(Cl)ccn3)ccc2F)CCSC(N)=N1 [Example 9, 4-Chloro-pyridine-2-carboxylic acid [3-((S)-2-amino-4-ethyl-5,6-dihydro-4H-[1,3]thiazin-4-yl)-4-fluoro-phenyl]-amide] |
| 475 | CC[C@@]1(c2cc(NC(=O)c3coc(C)n3)ccc2F)CCSC(N)=N1 [Example 18, 2-Methyl-oxazole-4-carboxylic acid [3-((S)-2-amino-4-ethyl-5,6-dihydro-4H-[1,3]thiazin-4-yl)-4-fluoro-phenyl]-amide] |
| 5460 | CC[C@@]1(c2cc(NC(=O)c3ncccc3C(F)(F)F)ccc2F)CCSC(N)=N1 [Example 7, 3-Trifluoromethyl-pyridine-2-carboxylic acid [3-((S)-2-amino-4-ethyl-5,6-dihydro-4H-[1,3]thiazin-4-yl)-4-fluoro-phenyl]-amide] |
| 1000 | CC[C@@]1(c2cc(NC(=O)c3cnc(Cl)cn3)ccc2F)CCSC(N)=N1 [Example 5, 5-Chloro-pyrazine-2-carboxylic acid [3-((S)-2-amino-4-ethyl-5,6-dihydro-4H-[1,3]thiazin-4-yl)-4-fluoro-phenyl]-amide] |
| 33500 | CC[C@@]1(c2cc(NC(=O)c3nc(Cl)ccc3C(F)(F)F)ccc2F)CCSC(N)=N1 [Example 12, 6-Chloro-3-trifluoromethyl-pyridine-2-carboxylic acid [3-((S)-2-amino-4-ethyl-5,6-dihydro-4H-[1,3]thiazin-4-yl)-4-fluoro-phenyl]-amide] |
| 2700 | CC[C@@]1(c2cc(NC(=O)c3ccc(Cl)cc3)ccc2F)CCSC(N)=N1 [Example 4, N-[3-((S)-2-Amino-4-ethyl-5,6-dihydro-4H-[1,3]thiazin-4-yl)-4-fluoro-phenyl]-4-chloro-benzamide] |
| 8 | CC[C@@]1(c2cc(NC(=O)c3ccc(Cl)cn3)ccc2F)CCSC(N)=N1 [Example 2, 5-Chloro-pyridine-2-carboxylic acid [3-((S)-2-amino-4-ethyl-5,6-dihydro-4H-[1,3]thiazin-4-yl)-4-fluoro-phenyl]-amide] |
| 667 | CC[C@@]1(c2cc(NC(=O)c3ccc(C)s3)ccc2F)CCSC(N)=N1 [Example 16, 5-Methyl-thiophene-2-carboxylic acid [3-((S)-2-amino-4-ethyl-5,6-dihydro-4H-[1,3]thiazin-4-yl)-4-fluoro-phenyl]-amide] |
| 50900 | CC[C@@]1(c2cc(NC(=O)c3cccc(C)n3)ccc2F)CCSC(N)=N1 [Example 10, 6-Methyl-pyridine-2-carboxylic acid [3-((S)-2-amino-4-ethyl-5,6-dihydro-4H-[1,3]thiazin-4-yl)-4-fluoro-phenyl]-amide] |
| 1030 | CC[C@@]1(c2cc(NC(=O)c3ccccn3)ccc2F)CCSC(N)=N1 [Example 3, Pyridine-2-carboxylic acid [3-((S)-2-amino-4-ethyl-5,6-dihydro-4H-[1,3]thiazin-4-yl)-4-fluoro-phenyl]-amide] |
| 916 | CC[C@@]1(c2cc(NC(=O)c3cc4ccccc4s3)ccc2F)CCSC(N)=N1 [Example 15, Benzo[b]thiophene-2-carboxylic acid [3-((S)-2-amino-4-ethyl-5,6-dihydro-4H-[1,3]thiazin-4-yl)-4-fluoro-phenyl]-amide] |
| 3080 | CC[C@@]1(c2cc(NC(=O)c3nccc4ccsc34)ccc2F)CCSC(N)=N1 [Example 14, Thieno[2,3-c]pyridine-7-carboxylic acid [3-((S)-2-amino-4-ethyl-5,6-dihydro-4H-[1,3]thiazin-4-yl)-4-fluoro-phenyl]-amide] |
| 9100 | CC[C@@]1(c2cc(NC(=O)c3cc4ccccc4cn3)ccc2F)CCSC(N)=N1 [Example 13, Isoquinoline-3-carboxylic acid [3-((S)-2-amino-4-ethyl-5,6-dihydro-4H-[1,3]thiazin-4-yl)-4-fluoro-phenyl]-amide] |
| 440 | CC[C@@]1(c2cc(NC(=O)c3ncc(Cl)cn3)ccc2F)CCSC(N)=N1 [Example 6, 5-Chloro-pyrimidine-2-carboxylic acid [3-((S)-2-amino-4-ethyl-5,6-dihydro-4H-[1,3]thiazin-4-yl)-4-fluoro-phenyl]-amide] |
| 2140 | CC[C@@]1(c2cc(NC(=O)c3ccn(C)n3)ccc2F)CCSC(N)=N1 [Example 17, 1-Methyl-1H-pyrazole-3-carboxylic acid [3-((S)-2-amino-4-ethyl-5,6-dihydro-4H-[1,3]thiazin-4-yl)-4-fluoro-phenyl]-amide] |
| 23000 | CC[C@@]1(c2cc(NC(=O)c3nc(Cl)ccc3Cl)ccc2F)CCSC(N)=N1 [Example 11, 3,6-Dichloro-pyridine-2-carboxylic acid [3-((S)-2-amino-4-ethyl-5,6-dihydro-4H-[1,3]thiazin-4-yl)-4-fluoro-phenyl]-amide] |
| 33600 | CC[C@@]1(c2cc(NC(=O)c3csc(C)n3)ccc2F)CCSC(N)=N1 [Example 19, 2-Methyl-thiazole-4-carboxylic acid [3-((S)-2-amino-4-ethyl-5,6-dihydro-4H-[1,3]thiazin-4-yl)-4-fluoro-phenyl]-amide] |

Reference: patent US20130096107A1, “USE OF AMINODIHYDROTHIAZINES FOR THE TREATMENT OR PREVENTION OF DIABETES” (Hoffmann-La Roche Inc., priority 2009, published 2013)
